In US7491821B2, “Inhibitors of P2X3” (Roche Palo Alto LLC, priority 2005, dated 2009):
Structures can show the parent of a compound that is named as a salt.

melting point [°C] | SMILES
133.5 to 140.1 | CC(=O)N1CCN(C[C@H](C)NC(=O)c2cc3c(-c4ccccc4)nn(C)c3s2)CC1 (as salt: salt) [compound 94, (S)-1-methyl-3-phenyl-1H-thieno[2,3-c]pyrazole-5-carboxylic acid [2-(4-acetyl-piperazin-1-yl)-1-methyl-ethyl]-amide]
133.9 to 139.9 | CC(=O)N1CCN(C[C@@H](C)NC(=O)c2cc3c(-c4ccccc4)nn(C)c3s2)CC1 (as salt: salt) [compound 93, (R)-1-methyl-3-phenyl-1H-thieno[2,3-c]pyrazole-5-carboxylic acid [2-(4-acetyl-piperazin-1-yl)-1-methyl-ethyl]-amide]
